This note sets out measurements from ChEMBL document CHEMBL3860054, “Design, synthesis and biological evaluation of novel alkyl diamine linked bivalent β-carbolines as angiogenesis inhibitors” (Bioorg Med Chem Lett, 2016).

The term IC50 denotes the concentration that inhibits the measured activity by half. One may read the solubility as the concentration that dissolves in the medium under given conditions. High values mean much dissolved substance, low ones little dissolved substance.

Data set [1] can be described thus: Antiproliferative activity against human EAhy926 cells assessed as reduction in cell viability measured after 48 hrs by MTT assay. The note with it: EA.hy 926, 48 h. It is filed as functional, cell-based. Background: Tetrazolium dyes change colour on reduction, which living cells bring about.
The nature of data set [2]: Solubility of compound in water. It is filed as physicochemical.
Data set [3] deals with EA.hy 926. The data set is described as follows: Antiangiogenic activity in human EAhy926 cells assessed as inhibition of VEGF-induced cell migration measured after 24 hrs by wound healing assay relative to control. It is filed as functional, cell-based.
Data set [4] has as its system EA.hy 926. The data set is described as follows: Antiangiogenic activity in human EAhy926 cells assessed as inhibition of VEGF-induced capillary-like tube formation on matrigel after 24 hrs by phase-contrast microscopy. It is filed as functional, cell-based.
For a further data set, the species on record is Gallus gallus. The data set is described as follows: Antiangiogenic activity in chicken chorioallantoic membrane at 30 uM/disc after 48 hrs by microscopic analysis. It is filed as functional.

Calls of active or inactive are those of the source. The rule behind the calls is not given here. A value given as a limit tells only on which side of the number the result lay.

Consider `Cl.Fc1ccc(Cn2c3ccccc3c3cc(CNCCCCCCNCc4cc5c6ccccc6n(Cc6ccc(F)cc6)c5cn4)ncc32)cc1`, for which the IC50 in data set [1] was determined as 4.08 µM. In addition, the solubility in data set [2] was > 10000 µg/mL.

With `CCCCn1c2ccccc2c2cc(CNCCCCCCNCc3cc4c5ccccc5n(CCCC)c4c(C)n3)nc(C)c21.Cl`, in data set [1], the IC50 is 2.74 µM. For the same molecule, the solubility in data set [2] was > 10000 µg/mL.

In the case of `Cc1nc(CNCCCCCCNCc2cc3c4ccccc4n(CC(C)C)c3c(C)n2)cc2c3ccccc3n(CC(C)C)c12.Cl`, the IC50 in data set [1] amounted to 2.68 µM. Further, the solubility in data set [2] was > 10000 µg/mL.

With `Cl.Clc1cccc(Cn2c3ccccc3c3cc(CNCCCCCNCc4cc5c6ccccc6n(Cc6cccc(Cl)c6)c5cn4)ncc32)c1`, the IC50 in data set [1] was 1.06 to 1.1 µM. Besides, the inhibition result in the data set on EA.hy 926 [3] and in the data set on EA.hy 926 [4] was “Dose-dependent effect” throughout. In addition, in the data set filed under Gallus gallus, the outcome was Active. In data set [2], the solubility is > 10000 µg/mL.

As to `CC(C)n1c2ccccc2c2cc(CNCCCCNCc3cc4c5ccccc5n(C(C)C)c4cn3)ncc21.Cl`, the IC50 in data set [1] is 2.48 µM. In addition, the solubility in data set [2] was > 10000 µg/mL.

Turning to `CCn1c2ccccc2c2cc(CNCCCCCCNCc3cc4c5ccccc5n(CC)c4cn3)ncc21.Cl`, in data set [1], the concentration for half-maximal inhibition (IC50) amounted to 2.59 µM. For the same molecule, the solubility in data set [2] was > 10000 µg/mL.

As to `Cl.c1ccc(CCCn2c3ccccc3c3cc(CNCCCCCCNCc4cc5c6ccccc6n(CCCc6ccccc6)c5cn4)ncc32)cc1`, in data set [1], the half-maximal inhibitory concentration (IC50) worked out at 2.35 µM. Also, the solubility in data set [2] is > 10000 µg/mL.

Turning to `Cl.c1ccc(CCCn2c3ccccc3c3cc(CNCCCCNCc4cc5c6ccccc6n(CCCc6ccccc6)c5cn4)ncc32)cc1`, in data set [1], the IC50 is 4.18 µM. For the same molecule, in data set [2], the solubility was > 10000 µg/mL.

Consider `CCCCn1c2ccccc2c2cc(CNCCCCNCc3cc4c5ccccc5n(CCCC)c4cn3)ncc21.Cl`, for which the half-maximal inhibitory concentration (IC50) in data set [1] was found to be 2.17 µM. For the same molecule, the solubility in data set [2] is > 10000 µg/mL.

As to `CC(C)Cn1c2ccccc2c2cc(CNCCCCNCc3cc4c5ccccc5n(CC(C)C)c4cn3)ncc21.Cl`, in data set [1], the IC50 turned out to be 3.08 µM. For the same molecule, in data set [2], the solubility is > 10000 µg/mL.

On to `Cc1nc(CNCCCCNCc2cc3c4ccccc4n(CCCc4ccccc4)c3c(C)n2)cc2c3ccccc3n(CCCc3ccccc3)c12.Cl`, for which the concentration for half-maximal inhibition (IC50) in data set [1] came to 2.11 µM. The solubility in data set [2] is > 10000 µg/mL.

For the molecule `CC(C)Cn1c2ccccc2c2cc(CNCCCCCCNCc3cc4c5ccccc5n(CC(C)C)c4cn3)ncc21.Cl`, the IC50 in data set [1] was determined as 6.3 µM. For the same molecule, the solubility in data set [2] is > 10000 µg/mL.

Consider `Cl.Clc1cccc(Cn2c3ccccc3c3cc(CNCCCCCCNCc4cc5c6ccccc6n(Cc6cccc(Cl)c6)c5cn4)ncc32)c1`, for which, in data set [1], the IC50 was 2.98 µM. The solubility in data set [2] was > 10000 µg/mL.

As to `COc1ccc(/C=C\c2cc(OC)c(OC)c(OC)c2)cc1OP(=O)(O)O` [FOSBRETABULIN], in data set [1], the IC50 was determined as 6.4 µM.

Turning to `Cl.Clc1cccc(Cn2c3ccccc3c3cc(CNCCCCNCc4cc5c6ccccc6n(Cc6cccc(Cl)c6)c5cn4)ncc32)c1`, the IC50 in data set [1] amounted to 6.86 µM. Further, the solubility in data set [2] is > 10000 µg/mL.

For the molecule `CCn1c2ccccc2c2cc(CNCCCCNCc3cc4c5ccccc5n(CC)c4cn3)ncc21.Cl`, in data set [1], the concentration for half-maximal inhibition (IC50) is > 10 µM. For the same molecule, the solubility in data set [2] is > 10000 µg/mL.

As to `Cl.c1ccc(Cn2c3ccccc3c3cc(CNCCCNCc4cc5c6ccccc6n(Cc6ccccc6)c5cn4)ncc32)cc1`, the IC50 in data set [1] was > 10 µM. In addition, in data set [2], the solubility is > 10000 µg/mL.

For the molecule `CCCCn1c2ccccc2c2cc(CNCCCNCc3cc4c5ccccc5n(CCCC)c4cn3)ncc21.Cl`, the IC50 in data set [1] was > 10 µM. In addition, the solubility in data set [2] is > 10000 µg/mL.

`Cc1nc(CNCCCCCCNCc2cc3c4ccccc4n(Cc4ccccc4)c3c(C)n2)cc2c3ccccc3n(Cc3ccccc3)c12.Cl`: the IC50 in data set [1] was found to be 1.39 µM. For the same molecule, the solubility in data set [2] is > 10000 µg/mL.

On to `CCCCCCCCn1c2ccccc2c2cc(CNCCCCNCc3cc4c5ccccc5n(CCCCCCCC)c4cn3)ncc21.Cl`, for which the IC50 in data set [1] came out at 4.86 µM. Moreover, the solubility in data set [2] was > 10000 µg/mL.

In the case of `CCCCCCCCn1c2ccccc2c2cc(CNCCCCCNCc3cc4c5ccccc5n(CCCCCCCC)c4cn3)ncc21.Cl`, the IC50 in data set [1] worked out at 3.77 µM. Besides, in data set [2], the solubility was > 10000 µg/mL.

As for `Cl.Cn1c2ccccc2c2cc(CNCCCCCCNCc3cc4c5ccccc5n(C)c4cn3)ncc21`, the IC50 in data set [1] was 2.58 µM. For the same molecule, the solubility in data set [2] is > 10000 µg/mL.

As to `Cl.c1ccc(Cn2c3ccccc3c3cc(CNCCCCCCNCc4cc5c6ccccc6n(Cc6ccccc6)c5cn4)ncc32)cc1`, in data set [1], the IC50 was 4.76 µM. Besides, in data set [2], the solubility is > 10000 µg/mL.

With `CC(C)n1c2ccccc2c2cc(CNCCCCCCNCc3cc4c5ccccc5n(C(C)C)c4cn3)ncc21.Cl`, in data set [1], the IC50 came out at 2.74 µM. Further, in data set [2], the solubility was > 10000 µg/mL.

Turning to `Cc1nc(CNCCCCNCc2cc3c4ccccc4n(Cc4cccc(Cl)c4)c3c(C)n2)cc2c3ccccc3n(Cc3cccc(Cl)c3)c12.Cl`, in data set [1], the IC50 turned out to be 4.81 µM. Besides, the solubility in data set [2] was > 10000 µg/mL.

Take `Cl.Fc1ccc(Cn2c3ccccc3c3cc(CNCCCCCNCc4cc5c6ccccc6n(Cc6ccc(F)cc6)c5cn4)ncc32)cc1`: the IC50 in data set [1] was 4.14 µM. The solubility in data set [2] is > 10000 µg/mL.

Consider `CCCCn1c2ccccc2c2cc(CNCCCCCCNCc3cc4c5ccccc5n(CCCC)c4cn3)ncc21.Cl`, for which, in data set [1], the IC50 was determined as 4.82 µM. For the same molecule, in data set [2], the solubility was > 10000 µg/mL.
